“And” between values parts separate entries of the source, which are not always exact repeats. Identical values can stand only once.
Tested on: 777334-354-R2-J4-PDC tumor spheroids with HUVEC/MSC, viability
Assay: Anticancer human tumor 777334-354-R2-J4-PDC patient-derived pancreatic adenocarcinoma cell line growth inhibition [GQUAD]
Conditions: for viability, T/C: stronger effect = lower value
Source text: DNA G-quadruplex Stabilizer Agents in Combinations in Complex Spheroids
A high-throughput screen of multi-cell type tumor spheroids was designed to identify active combinations of DNA G-quadruplex stabilizer agents and targeted small molecules. Complex spheroids include a stromal component modeled by human endothelial cells (HUVEC) and fibroblasts modeled by human mesenchymal stem cells (MSCs). The concentration ranges selected for each drug and investigational agent were based upon clinically achievable concentrations if the clinical Cmax of the agent was known.
Compounds. The drugs and investigational agents: pidnarulex (CX-5461; NSC782164), APTO-253 (NSC789042), BRACO-19 (NSC847499), peposertib (NSC802822), ceralasertib (NSC780249), elimusertib (NSC800525), camonsertib (NSC841442), AZD-1390 (NSC803789), olaparib (NSC753686), talazoparib (NSC767125), ART-558 (NSC835418), sotorasib (NSC818433), MRTX-1133 (NSC836407), SN-38 (NSC673596), topotecan (NSC609699), etoposide (NSC141540), doxorubicin (NSC123127), gemcitabine (NSC613327), 5-fluorouracil (NSC19893), paclitaxel (NSC125973), vemurafenib (NSC761431), panobinostat (NSC761190), R-306465 (JNJ-16241199; NSC773264), adavosertib (NSC754352), TP-3654 (NSC805149), carboplatin (NSC241240), KSQ-4279 (NSC840948), and staurosporine (NSC755774) were obtained from the National Cancer Institute (NCI) Developmental Therapeutics Program Chemical Repository (34). The FDA-approved anticancer drug set is available from the NCI Developmental Therapeutics Program. […] The stock solutions were prepared in dimethyl sulfoxide (DMSO, Sigma-Aldrich, St. Louis, MO, cat. D2650) at 800-fold the tested concentration and stored at -70 degrees C prior to their use. All drugs and investigational agents were tested over a range starting from a high concentration at or near the clinical Cmax and decreasing in half-log increments. If the clinical Cmax for an agent had not been determined, the highest concentration tested was 10 microM.
2.3 Cell Culture. All cells were maintained in an incubator at 37 degrees C and 5% CO2 with 95% humidity. The PDC lines were cultured according to standard operating procedures established by the NCI PDMR. All PDCs were thawed and cultured in Matrigel-coated flasks prepared with a working solution of 1X Ham's F-12 nutrient mix, without supplementation (Invitrogen, cat. 11765054), 100 U/mL penicillin-streptomycin (Invitrogen, cat. 15140122), and 2.5% Matrigel (Corning Inc., cat. 354248) for the first three passages. The 857933-349-R-J2-PDC line was cultured in 6C/Colon 1B media, which includes advanced DMEM/F-12 (Thermo Fisher Scientific, cat. 12634028), 10 mM HEPES (Thermo Fisher Scientific, cat. 15630080), 1X GlutaMAX supplement (Thermo Fisher Scientific, cat. 35050061), 0.1 mg/mL primocin (InvivoGen, cat. ant-pm-2), 10% defined fetal bovine serum, heat inactivated (HyClone Laboratories Inc., cat. SH30070.03HI), 50% L-WRN conditioned media (ATCC, cat. CRL-3276), 1.25 mM N-Acetyl-L-cysteine (Sigma-Aldrich, cat. A9165), 10 mM nicotinamide (Sigma-Aldrich, cat. N0636), 1X B-27 supplement (Thermo Fisher Scientific, cat. 17504044), 1X N-2 supplement (Thermo Fisher Scientific, cat. 17502048), 10 microM Y-27632 dihydrochloride (Tocris Bioscience, cat. 1254), and 50 ng/mL human EGF recombinant protein (Thermo Fisher Scientific, cat. PHG0311). The 485176-168-R4-J1-PDC line was cultured in Panc media, which includes all 6C/Colon 1B media components plus 100 ng/mL human FGF-10 (Thermo Fisher Scientific, cat. 100-26), 500 nM SB-431542 (Selleckchem, cat. S1067), and gastrin (Tocris, cat. 3006).
[…]
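Also: spheroids exposed to compounds for 7 days before readout.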

O=C(c1cc(Cc2n[nH]c(=O)c3ccccc23)ccc1F)N1CCN(C(=O)C2CC2)CC1
viability, T/C (compound 0.0316 µM): 92.5% and 109% and 99%
viability, T/C (compound 0.1 µM): 111% and 84% and 105%
viability, T/C (compound 0.316 µM): 96.9% and 103% and 102%
viability, T/C (compound 1 µM): 84.4% and 89.3% and 94.1%
viability, T/C (compound 3.16 µM): 88.8% and 76.5% and 101%
viability, T/C (compound 10 µM): 77.2% and 75.9% and 79.5%
IC50 (curve of compound): > 10 µM

O=C(c1cc(Cc2n[nH]c(=O)c3ccccc23)ccc1F)N1CCN(C(=O)C2CC2)CC1 + Cc1[nH]c2ccc(F)cc2c1-c1nc2c3cccnc3c3ncccc3c2[nH]1
IC50 (curve of first compound, second compound 0.0316 µM): > 10 µM
IC50 (curve of first compound, second compound 0.1 µM): > 10 µM
IC50 (curve of first compound, second compound 0.316 µM): > 10 µM
IC50 (curve of first compound, second compound 1 µM): > 10 µM
IC50 (curve of first compound, second compound 3.16 µM): < 0.0316 µM
IC50 (curve of first compound, second compound 10 µM): < 0.0316 µM
viability, T/C (second compound 0.0316 µM, first compound 0.0316 µM): 95.4%
viability, T/C (second compound 0.0316 µM, first compound 0.1 µM): 95.8%
viability, T/C (second compound 0.0316 µM, first compound 0.316 µM): 102%
viability, T/C (second compound 0.0316 µM, first compound 1 µM): 98.7%
viability, T/C (second compound 0.0316 µM, first compound 3.16 µM): 93.6%
viability, T/C (second compound 0.0316 µM, first compound 10 µM): 83.1%
viability, T/C (second compound 0.1 µM, first compound 0.0316 µM): 98.6%
viability, T/C (second compound 0.1 µM, first compound 0.1 µM): 98.9%
viability, T/C (second compound 0.1 µM, first compound 0.316 µM): 99.5%
viability, T/C (second compound 0.1 µM, first compound 1 µM): 92.5%
viability, T/C (second compound 0.1 µM, first compound 3.16 µM): 103%
viability, T/C (second compound 0.1 µM, first compound 10 µM): 78.7%
viability, T/C (second compound 0.316 µM, first compound 0.0316 µM): 99.2%
viability, T/C (second compound 0.316 µM, first compound 0.1 µM): 98.7%
viability, T/C (second compound 0.316 µM, first compound 0.316 µM): 95.1%
viability, T/C (second compound 0.316 µM, first compound 1 µM): 103%
viability, T/C (second compound 0.316 µM, first compound 3.16 µM): 106%
viability, T/C (second compound 0.316 µM, first compound 10 µM): 76%
viability, T/C (second compound 1 µM, first compound 0.0316 µM): 75.5%
viability, T/C (second compound 1 µM, first compound 0.1 µM): 89.7%
viability, T/C (second compound 1 µM, first compound 0.316 µM): 91.6%
viability, T/C (second compound 1 µM, first compound 1 µM): 82.9%
viability, T/C (second compound 1 µM, first compound 3.16 µM): 89.2%
viability, T/C (second compound 1 µM, first compound 10 µM): 82.5%
viability, T/C (second compound 3.16 µM, first compound 0.0316 µM): 37.8%
viability, T/C (second compound 3.16 µM, first compound 0.1 µM): 39.2%
viability, T/C (second compound 3.16 µM, first compound 0.316 µM): 36.4%
viability, T/C (second compound 3.16 µM, first compound 1 µM): 38.2%
viability, T/C (second compound 3.16 µM, first compound 3.16 µM): 43%
viability, T/C (second compound 3.16 µM, first compound 10 µM): 32.8%
viability, T/C (second compound 10 µM, first compound 0.0316 µM): 24.9%
viability, T/C (second compound 10 µM, first compound 0.1 µM): 35.9%
viability, T/C (second compound 10 µM, first compound 0.316 µM): 39%
viability, T/C (second compound 10 µM, first compound 1 µM): 33.7%
viability, T/C (second compound 10 µM, first compound 3.16 µM): 36.5%
viability, T/C (second compound 10 µM, first compound 10 µM): 33%

Cc1cnc(CNC(=O)c2c(=O)c3ccc(N4CCCN(C)CC4)nc3n3c2sc2ccccc23)cn1
viability, T/C (compound 0.0316 µM): 95.7% [middle of 12 runs]
viability, T/C (compound 0.1 µM): 88.5% [middle of 12 runs]
viability, T/C (compound 0.316 µM): 85.2% [middle of 12 runs]
viability, T/C (compound 1 µM): 76% [middle of 12 runs]
viability, T/C (compound 3.16 µM): 68.6% [middle of 12 runs]
viability, T/C (compound 10 µM): 54.9% [middle of 12 runs]
IC50 (compound alone, run of 03/18/2024): > 10 µM and 7.43 µM
